{"source": "paper PMC6222672", "about": "“Pharmacokinetic and Metabolism Studies of 12-Riboside-Pseudoginsengenin DQ by UPLC-MS/MS and UPLC-QTOF-MS^E” (Molecules : A Journal of Synthetic Chemistry and Natural …, 2018)", "key": {"[1]": {"format": "in vitro ADME", "conditions": "rat", "method": "RPDQ and 20R-panaxadiol stock methanol solutions (1.00 mg/mL) were all prepared with the reference compounds, respectively. Firstly, blank rat plasma was prepared. The blood samples were collected immediately from the abdominal aorta and incubated at 37 °C for 30 min. The plasma was separated by centrifugation at 4000 rpm for 15 min, and was frozen at −20 °C until analysis. By spiking the dilute solutions with blank rat plasma, calibration curves were plotted to produce the points equivalent to 5, 10, 25, 50, 100, 300, 500, and 1000 ng/mL for RPDQ. […] All the QC and calibration standards samples were prepared freshly before analysis. The specificity, linearity, LLOQ, precision and accuracy, extraction recovery, matrix effect, diluted reliability, and stability of the method were validated by following a non-clinical drug pharmacokinetic study technical guideline (China Food And Drug Administration 2014) and the Bioanalytical Method Validation Guideline (Chinese Pharmacopoeia 2015, Vol. 4). Specificity was assessed by comparing blank plasma samples, plasma was spiked with RPDQ and 20R-panaxadiol, and plasma samples were collected after administration. Linearity was analyzed through weighted regression (1/x^2) of peak area ratios (y) of RPDQ to 20R-panaxadiol versus nominal concentration (x) in plasma. […] The intra- and inter-day precision and accuracy were evaluated with the analysis of six replicate QC samples on three consecutive days, respectively. The extraction recovery and matrix effect at three QC concentrations were assayed. By comparing peak areas of RPDQ and 20R-panaxadiol in extracted QC samples with those in post-extracted blank plasma samples, the recoveries were calculated. Moreover, by comparing the peak area of samples spiked after extraction with that of the neat solution’s equivalent concentration, the matrix effect was then evaluated. Stability was evaluated by analyzing replicate QC samples, which were stored at −20 °C for two weeks at room temperature for 4 h, and experienced three freeze/thaw cycles (from −20 °C to room temperature) on consecutive days. The stabilities of RPDQ in stock solutions at 15 °C and stored in plastic autosampler vials for 16 h at 10 °C were also assessed. Five-fold higher concentrations of QC were achieved by adding moderate RPDQ to blank plasma. The samples were then diluted and analyzed with undiluted calibration standards. The accuracy and precision were within acceptable limits (± 15%)."}, "S180 cells": {"system": "S180 cells", "assay": "MTT cell viability test, S180 cells", "format": "cell-based", "conditions": "1-200 μM, 44 h", "from_the_text": "(§1) Antitumor activity test of RPDQ in vitro by using S180, SPC-A-1 and A549 cells\n(§2) Since the startmaterial for the semi-synthesis of 12-Riboside-pseudoginsengenin DQ (RPDQ) was pseudoginsengenin DQ (PDQ), the antitumor activities of RPDQ […]\n(§3) and PDQ were both tested.\n(§4) The SPC-A-1 and S180 tumor cell lines were purchased from Wuhan Procell Life Science & Technology Co,.Ltd. A549 tumor cell lines were purchased from iCell Bioscience Inc (Shanghai) Biological Co., Ltd.\n(§5) 2. Experimental procedure\n(§6) S180 cells (1 × 10^5 cells/mL) were seeded into a 96-well plate. After 24 h, pretreated with various concentrations of RPDQ or PDQ (1-200 μM) for 44 h at 37℃, and the cells were treated with MTT for 4 h. The formazan crystal product in the cells were dissolved with acid isopropanol. The absorbance was measured at 570 nm with a […]\n(§7) SPC-A-1/A549 cells(1×10^5 cells/mL) were seeded into a 96-well plate. After 24 h, pretreated with various concentrations of RPDQ or PDQ (1-200 μM) for 44 h at 37℃ , and the cells were treated with MTT for 4 h. […] The absorbance was measured at 490 nm with a […]\n(§8) Cell viability was calculated by the following formula: Cell viability (%)= 1-{(ODcontrolgroup-ODtreatedgroup)/ODcontrol group×100%}.\n(§9) All data were processed by statistical software SPSS 17.0. The data were expressed as Mean ± Standard Deviation. The differences between groups were analyzed by one-way analysis of variance. […]"}, "SPC-A-1 cells": {"system": "SPC-A-1 cells", "assay": "MTT cell viability test, SPC-A-1 cells", "format": "cell-based", "conditions": "1-200 μM, 44 h", "from_the_text": "as §1, §2, §3, §4, §5, §6, §7, §8, §9"}}, "note": "Entries after “also recorded” stand apart in the source; their conditions may differ. Like-named read-outs stand apart in the source and are kept apart here.", "data": [{"compound": "CC(C)(O)[C@@H]1CC[C@@](C)([C@H]2CC[C@]3(C)[C@@H]2[C@H](O[C@@H]2O[C@H](CO)[C@@H](O)[C@H]2O)C[C@@H]2[C@@]4(C)CC[C@H](O)C(C)(C)[C@@H]4CC[C@]23C)O1", "note": "[RPDQ, 20S, 24S-12-O-β-D-ribofuranosyl-dammar-20, 24-epoxy-3β, 12β, 25-triol]", "values": [{"measurement": "Mean concentration", "setting": "[1]; 15 ng/mL", "value": "14.96 ± 0.58", "unit": "ng/mL"}, {"measurement": "Mean concentration", "setting": "[1]; 200 ng/mL", "value": "188.7 ± 16.57", "unit": "ng/mL"}, {"measurement": "Mean concentration", "setting": "[1]; 800 ng/mL", "value": "785.21 ± 19.19", "unit": "ng/mL"}, {"measurement": "Accuracy", "setting": "[1]; 3 freeze-thaw cycles, 800 ng/mL", "value": "−1.85", "unit": "%"}, {"measurement": "Accuracy", "setting": "[1]; 3 freeze/thaw cycles, 15 ng/mL", "value": "−0.03", "unit": "%"}, {"measurement": "Accuracy", "setting": "[1]; 3 freeze/thaw cycles, 200 ng/mL", "value": "−5.65", "unit": "%"}, {"measurement": "Accuracy", "setting": "[1]; 4 h, 15 ng/mL", "value": "−1.00", "unit": "%"}, {"measurement": "Mean concentration", "setting": "[1]; 4 h, 15 ng/mL", "value": "14.85 ± 0.72", "unit": "ng/mL"}, {"measurement": "Accuracy", "setting": "[1]; 4 h, 200 ng/mL", "value": "−5.94", "unit": "%"}, {"measurement": "Mean concentration", "setting": "[1]; 4 h, 200 ng/mL", "value": "188.12 ± 14.00", "unit": "ng/mL"}, {"measurement": "Accuracy", "setting": "[1]; 4 h, 800 ng/mL", "value": "−3.25", "unit": "%"}, {"measurement": "Mean concentration", "setting": "[1]; 4 h, 800 ng/mL", "value": "773.99 ± 26.01", "unit": "ng/mL"}, {"measurement": "Accuracy", "setting": "[1]; 16 h, 15 ng/mL", "value": 2.2, "unit": "%"}, {"measurement": "Mean concentration", "setting": "[1]; 16 h, 15 ng/mL", "value": "15.33 ± 1.61", "unit": "ng/mL"}, {"measurement": "Accuracy", "setting": "[1]; 16 h, 200 ng/mL", "value": "−6.52", "unit": "%"}, {"measurement": "Mean concentration", "setting": "[1]; 16 h, 200 ng/mL", "value": "186.96 ± 13.41", "unit": "ng/mL"}, {"measurement": "Accuracy", "setting": "[1]; 16 h, 800 ng/mL", "value": 2.03, "unit": "%"}, {"measurement": "Mean concentration", "setting": "[1]; 16 h, 800 ng/mL", "value": "816.23 ± 15.82", "unit": "ng/mL"}, {"measurement": "Accuracy", "setting": "[1]; 14 d, 15 ng/mL", "value": 2.74, "unit": "%"}, {"measurement": "Mean concentration", "setting": "[1]; 14 d, 15 ng/mL", "value": "15.41 ± 1.47", "unit": "ng/mL"}, {"measurement": "Accuracy", "setting": "[1]; 14 d, 200 ng/mL", "value": "−10.47", "unit": "%"}, {"measurement": "Mean concentration", "setting": "[1]; 14 d, 200 ng/mL", "value": "179.07 ± 14.73", "unit": "ng/mL"}, {"measurement": "Accuracy", "setting": "[1]; 14 d, 800 ng/mL", "value": "−1.71", "unit": "%"}, {"measurement": "Mean concentration", "setting": "[1]; 14 d, 800 ng/mL", "value": "786.32 ± 19.88", "unit": "ng/mL"}, {"measurement": "anticancer / anti-proliferation effect", "setting": "S180 cells", "value": "good anti-proliferation effects; also recorded: significant anticancer activity"}, {"measurement": "anticancer / anti-proliferation effect", "setting": "SPC-A-1 cells", "value": "good anti-proliferation effects; also recorded: significant anticancer activity"}]}]}
